Results on six compounds are retold here after publication PMC5308383 (2016).

Test [1] deals with CBSA-5335 (fluorophore/quencher-modified) (DNA, aptamer, C3 spacer abasic at 10 of strand 2) CTCCTTCAACGAAGTGGGTCTCCTTCAACGAAGTGGGTCTC/GAGACAAGGNGACAAGGAGT
Nature of the test: fluorophore/quencher assembly assay. Particulars: 100 μM MgCl2.

The test system of test [2] is 38-GC (DNA, aptamer) GGGAGACAAGGAAAATCCTTCAACGAAGTGGGTCTCCC
Nature of the test: ITC. Particulars: 20 μM aptamer, 500 μM cocaine titrant.

The test system of test [3] is 38-GC-20A (DNA, aptamer) GGGAGACAAGGAAAATCCTACAACGAAGTGGGTCTCCC
In words: ITC. The following applies: 20 μM aptamer, 500 μM cocaine titrant.

The test system of test [4] is 38-GC-20C (DNA, aptamer) GGGAGACAAGGAAAATCCTCCAACGAAGTGGGTCTCCC
In words: ITC. Particulars: 20 μM aptamer, 500 μM cocaine titrant.

In test [5] the test system is 38-GC-21T (DNA, aptamer) GGGAGACAAGGAAAATCCTTTAACGAAGTGGGTCTCCC
In words: ITC. The following applies: 20 μM aptamer, 500 μM cocaine titrant.

In test [6] the test system is 38-GC-22T (DNA, aptamer) GGGAGACAAGGAAAATCCTTCTACGAAGTGGGTCTCCC
Nature of the test: ITC. Particulars: 20 μM aptamer, 500 μM cocaine titrant.

The test system of test [7] is 38-GC-22G (DNA, aptamer) GGGAGACAAGGAAAATCCTTCGACGAAGTGGGTCTCCC
In words: ITC. Particulars: 20 μM aptamer, 500 μM cocaine titrant.

Test [8] concerns PSA (DNA, aptamer, C3 spacer abasic at 3 of strand 2) CTCCTTCAACGAAGTGGGTTCC/GGNACAAGGAG
In words: ITC, single-site fit. The following applies: 100 μM MgCl2; 10 mM Tris-HCl, pH 7.4, 20 °C.

The test system of test [9] is CBSA-5325 (DNA, aptamer, C3 spacer abasic at 10 of strand 2) CTCCTTCAACGAAGTGGGTTCCTTCAACGAAGTGGGTCTC/GAGACAAGGNACAAGGAG
Nature of the test: ATMND quenching assembly assay. Particulars: 100 μM MgCl2; 10 mM Tris-HCl, pH 7.4; 1 μM each strand; 200 nM ATMND; 250 μM cocaine, 72% quenching.

Test [10] deals with CBSA-M1 (DNA, aptamer, C3 spacer abasic at 10 of strand 2) CTCCTTCAACGAAGTGGGTTCCTTCGACGAAGTGGGTCTC/GAGACAAGGNACAAGGAG
Nature of the test: ATMND quenching assembly assay. Particulars: 100 μM MgCl2; 10 mM Tris-HCl, pH 7.4; 1 μM each strand; 200 nM ATMND; cocaine tested at 250 μM.

Test [11] deals with CBSA-M2 (DNA, aptamer, C3 spacer abasic at 10 of strand 2) CTCCTTCGACGAAGTGGGTTCCTTCAACGAAGTGGGTCTC/GAGACAAGGNACAAGGAG
In words: ATMND quenching assembly assay. The following applies: 100 μM MgCl2; 10 mM Tris-HCl, pH 7.4; 1 μM each strand; 200 nM ATMND; cocaine tested at 250 μM.

Test [12] deals with LSA (DNA, aptamer, C3 spacer abasic at 10 of strand 2) CTCCTTCAACGAAGTGGGTTCCTTGTCTC/GAGACAAGGNACAAGGAG
Nature of the test: ATMND quenching assembly assay. Particulars: 100 μM MgCl2; 10 mM Tris-HCl, pH 7.4; 1 μM each strand; 250 μM cocaine, additional 10% change; mostly pre-assembled.

For test [13], the system named is CBSA-5435 (DNA, aptamer, C3 spacer abasic at 11 of strand 2) CTCCTTCAACGAAGTGGGTCTTCCTTCAACGAAGTGGGTCTC/GAGACAAGGANGACAAGGAG
In words: ATMND quenching assembly assay. The following applies: 100 μM MgCl2.

Test [14] concerns CBSA-5445 (DNA, aptamer, C3 spacer abasic at 11 of strand 2) CTCCTTCAACGAAGTGGGTTCTTCCTTCAACGAAGTGGGTCTC/GAGACAAGGANGAACAAGGAG
In words: ATMND quenching assembly assay. The following applies: 100 μM MgCl2.

Test [15] relates to CBSA-5325 (fluorophore/quencher-modified) (DNA, aptamer, C3 spacer abasic at 10 of strand 2) CTCCTTCAACGAAGTGGGTTCCTTCAACGAAGTGGGTCTC/GAGACAAGGNACAAGGAGT
In words: fluorophore/quencher assembly titration, Hill fit. Particulars: 100 μM MgCl2; 10 mM Tris-HCl, pH 7.4, room temperature; 1 μM each strand; nH 1.1; apparent.

Test [16] deals with CBSA-5335 (fluorophore/quencher-modified) (DNA, aptamer, C3 spacer abasic at 10 of strand 2) CTCCTTCAACGAAGTGGGTCTCCTTCAACGAAGTGGGTCTC/GAGACAAGGNGACAAGGAGT
Nature of the test: fluorophore/quencher assembly titration, Hill fit. The following applies: 100 μM MgCl2; 10 mM Tris-HCl, pH 7.4, room temperature; 1 μM each strand; nH 1.5; apparent; b21 prints 33 μM.

In test [17] the test system is CBSA-5335-GT (fluorophore/quencher-modified) (DNA, aptamer, C3 spacer abasic at 10 of strand 2) CTCCTTCAATGAAGTGGGTCTCCTTCAACGAAGTGGGTCTC/GAGACAAGGNGACAAGGAGT
In words: fluorophore/quencher assembly titration, Hill fit. Particulars: 100 μM MgCl2; 10 mM Tris-HCl, pH 7.4, room temperature; 1 μM each strand; nH 1.5; apparent.

The subject of test [18] is LSA (DNA, aptamer, C3 spacer abasic at 10 of strand 2) CTCCTTCAACGAAGTGGGTTCCTTGTCTC/GAGACAAGGNACAAGGAG
In words: fluorescence quenching. The following applies: 100 μM MgCl2; 10 mM Tris-HCl, pH 7.4; 1 μM each strand; 200 nM ATMND; no cocaine; 75% quenching.

The test system of test [19] is CBSA-5325 (DNA, aptamer, C3 spacer abasic at 10 of strand 2) CTCCTTCAACGAAGTGGGTTCCTTCAACGAAGTGGGTCTC/GAGACAAGGNACAAGGAG
Nature of the test: fluorescence quenching titration, Scatchard. Particulars: 100 μM MgCl2; 10 mM Tris-HCl, pH 7.4; 200 nM ATMND; 1 mM cocaine present (cocaine-assembled aptamer).

Regarding `CCOC(=O)[C@H]1[C@@H](OC(=O)c2ccccc2)C[C@@H]2CC[C@H]1N2C`, the binding result in [1] (10% saliva, room temperature, 19% cross-reactivity at 50 μM, 3% at 5 μM) is recorded as “weak”.

Consider `CN1CCC[C@H]1c1cccnc1`, for which, in test [1] (10% saliva, 10 mM Tris-HCl, pH 7.4, room temperature, tested at 50 μM), the binding result is “no”.

Consider `CN1[C@H]2CC[C@@H]1[C@@H](C(=O)O)[C@@H](OC(=O)c1ccccc1)C2`, for which the binding result in [1] was “no”.

For `COC(=O)C1=CC[C@@H]2CC[C@H]1N2C`, the binding result in test [1] is listed as “no”.

What is called KD is the free concentration of one partner at which half of the binding sites on the other are occupied at equilibrium, for simple one-to-one binding. A higher KD goes with lower affinity. As for `COC(=O)[C@H]1[C@@H](OC(=O)c2ccccc2)C[C@@H]2CC[C@H]1N2C`, the KD worked out at 2.60 µM in test [2]; 169 µM in [3]; 714 µM in [4]; 49.3 µM in [5]; 169 µM in test [6]; 2000 µM in [8]. The binding entry in test [7] was “no”; in test [9], “yes”; in test [10] it was “no”; in test [11], “no”; in [12], “weak”; in test [13] it was “yes”. The binding result in test [14] is on record as “yes”. In addition, the “K 1/2” value in [15] worked out at 106 µM; in test [16], 36 µM; in test [17], 125 µM.

As for `Cc1nc2nc(N)ccc2c(C)c1C`, the binding entry in [18] is reported as “yes”. Moreover, the “KD” value in test [19] amounted to 0.365 µM.
